Results taken from patent US6623931B2, “Diagnostic assay for antibiotic tolerance” (priority 2001, dated 2003).

What was measured:
Assay type in all cases: cell-based
Streptococcus pneumoniae [1] = test: viability assay after exposure to vancomycin
Excerpt: To confirm tolerance, the 27 non-lytic strains were subjected to viability assays. […] This is within ±2 standard deviations (SD) of the killing rate for the tolerant Lyt4-4 strain.

Streptococcus pneumoniae [2] = test: lysis after exposure to 10×MIC vancomycin (optical density of the culture)
Procedure: Prevalence of vancomycin tolerance in clinical isolates. To determine the prevalence of vancomycin tolerance in Streptococcus pneumoniae in a population of healthy children, 215 nasopharygeal isolates from Vanderbilt University Hospital were screened for lysis after exposure to 10×MIC (minimum inhibitory concentration) vancomycin (5 ug/ml).

Streptococcus pneumoniae [3] = test: MIC of tolerant isolates; settings: tolerant clinical isolates
Procedure: (§1) Characteristics of Tolerant Isolates. The MIC's of the tolerant isolates ranged from 0.1 ug/ml to 0.3 ug/ml vancomycin and all were resistant to penicillin as evidenced by an oxacillin disc sensitivity test. Tolerance was not correlated with serotype. Frequently, tolerant strains were isolated days to weeks after non-tolerant strains in the same child indicating tolerance could arise during carriage in the nasopharynx. Clonal relatedness between the non-tolerant and tolerant strains isolated sequentially from the same child was assessed by pulse-field gel electrophoresis (PFGE) patterns of SmaI digested genomic DNA. […] Thus, tolerant and non-tolerant strains could be paired for comparison. PFGE indicated a possible serotype switch in one child (Child C), while another child (Child E) was colonized by two separate, yet closely related, tolerant strains.

Streptococcus pneumoniae [4] = test: reversal of tolerance by exogenous synthetic Pep27 added with vancomycin; settings: tolerant clinical strains, vancomycin 10×MIC in the absence of peptide
Procedure: Pep27 Transport by Vex. In laboratory strains, tolerance has been created by loss of function mutations in the death signal Pep27 or its transporter Vex, the loci contiguous with vncS/R. Tolerance in these cases was attributed to lack of Pep27 or lack of Pep27 export into the supernatant. To assess Pep27 in the supernatant, immunoprecipitations were performed using Pep27 antibody. […] Therefore, extracellular transport of the peptide may be defective in tolerant strains leading to the loss of signal for death through VncS. If so, tolerance should be reversed through the addition of exogenous Pep27 to the culture. To test this, tolerant clinical strains were treated with vancomycin at 10×MIC as before but 0.5 mM synthetic Pep27 was added in conjunction with the antibiotic.

Streptococcus pneumoniae [5] = test: lysis by 1% deoxycholate (activation of functional LytA); settings: all tolerant isolates
Excerpt: Identification of the Mechanism Contributing to Tolerance. […] Furthermore, all tolerant isolates were lysed by 1% deoxycholate—a detergent that specifically activates functional LytA causing lysis of the bacteria. This eliminated mechanisms of tolerance in the clinical strains that arise from lack of enzyme or loss of amidase activity. Attention thus focused on the only reported mechanism where normal amidase is present: mutation of the vncR/S locus, encoding a two-component sensor regulator system. Western blot analysis confirmed the presence of VncS and VncR in the tolerant clinical isolates.

Streptococcus pneumoniae [6] = test: oxacillin disc sensitivity test; settings: tolerant clinical isolates
Procedure: as §1

## CN[C@H](CC(C)C)C(=O)N[C@H]1C(=O)N[C@@H](CC(N)=O)C(=O)N[C@H]2C(=O)N[C@H]3C(=O)N[C@H](C(=O)N[C@H](C(=O)O)c4cc(O)cc(O)c4-c4cc3ccc4O)[C@H](O)c3ccc(c(Cl)c3)Oc3cc2cc(c3O[C@@H]2O[C@H](CO)[C@@H](O)[C@H](O)[C@H]2O[C@H]2C[C@](C)(N)[C@H](O)[C@H](C)O2)Oc2ccc(cc2Cl)[C@H]1O [vancomycin]
Streptococcus pneumoniae [1]; R6 strain, after 4 hours of exposure to vancomycin
  log kill: 5 log
Streptococcus pneumoniae [1]; eight tolerant clinical isolates, after 4 hours of exposure to vancomycin
  log killing: < 3 log
Streptococcus pneumoniae [1]; remaining 19 non-lytic isolates
  viability after antibiotic exposure: dead after antibiotic exposure
Streptococcus pneumoniae [2]; 27 of 215 nasopharyngeal isolates that failed to lyse, after 4 hours, 10×MIC vancomycin (5 ug/ml)
  optical density of the culture: above 0.15
Streptococcus pneumoniae [2]; control R6 strain, after 2 hours @ 10×MIC of vancomycin
  OD620nm: 0.02
Streptococcus pneumoniae [3]
  MIC: 0.1 to 0.3 µg/mL
Streptococcus pneumoniae [4]
  viability diminished: 2 logs

## deoxycholate
Streptococcus pneumoniae [5]
  lysis of the bacteria: lysed

## penicillin
Streptococcus pneumoniae [6]
  penicillin susceptibility: resistant
